Source: patent US5238938A, “Indole derivatives” (Otsuka Pharmaceutical Co., Ltd., priority 1989, dated 1993)

What follows are compounds tested on releasing of lysosome from the neutrocytes of rat (assay: Inhibitory effect against the releasing of lysosome from the neutrocytes of rat). Details: 0.25 h; rat neutrocytes 5×10^5 cells/ml; FMLP 10^-6 M + cytochalasin B 5 μg/ml; 15 minutes; OD550; read-out: 50% inhibitory concentration (IC50), releasing of lysosome.
Assay type: cell-based
Description: Inhibitory effect against the releasing of lysosome from the neutrocytes of rat
The neutrocytes of rat were samples from the abdominal cavity of the reat 16 hours after the administration of 10 ml of 1%-casein solution (physiological saline solution).
Reaction of the releasing of lysosome from the neutrocytes of rat was determined by means of the method described in an article by T. Matsumoto, K. Takeshige and S. Minakami: Biochemical and Biophysical Research Communications, Vol. 88, No. 3, pp. 974-979, (1979).
The neutrocytes being sampled were added to Hank's soluiton so as to make the concentraiton thereof as 5×10^5 cells/ml, and the test compound of indole derivative of the present invention was added thereto to make the test group sample. On the other hand, water was added in place of the indole derivative of the present invention to make the control group sample. Each of the test group sample and the control group sample was subjected to pre-incubation at 37° C. for 1 minute.
As to the stimulating agents, 10^-6 M of FMLP (formylmethionyl leucyl phenylalanine) and 5 μg/ml of cytochalasin B were added to the solution. Thus, obtained mixture of the solution was reacted by incubating for 15 minutes. After the incubation, the mixture of the solution was subjected to centrifugation at 2,000 rpm for 10 minutes. The supernatant (0.2 ml) was admixed with 0.5 ml of 0.1M-acetic acid buffer solution (pH 4.5) in which 0.2 mM of phenolphthalein glucuronic acid was dissolved. Then the resulting mixture of the solutions was reacted at 37° C. for 5 hours by incubation. After the reaction, 1N-NaOH solution was added to the reaction mixture so as to make the pH thereof to pH 8-9, and the optical absorbance of both test group samples and control group samples were determined at 550 nm (OD550).
The 50% inhibitory concentration (IC50) values were obtained by calculating as the ratio of OD550 of the test group samples to that of the control group samples.

Row | Compound | IC50
1 | CC(C)Cc1cnc(Cc2c[nH]c3ccccc23)cn1 [Compound A-27, 2-(indol-3-yl)methyl-5-isobutylpyrazine] | 25 µg/mL
2 | CN1C(=O)C(c2ccccc2)NC(=O)/C1=C/c1c[nH]c2ccccc12 (centres unmarked) [Compound A-4a, (Z)-6-(indol-3-yl)methylidene-1-methyl-3-phenylpiperazine-2,5-dione] | 35 µg/mL
3 | COc1c(Cc2c[nH]c3ccccc23)n(C)c(=O)c(CC(C)C)[n+]1[O-] [Compound A-59, 6-(indol-3-yl)methyl-3-isobutyl-5-methoxy-1-methyl-1,2-dihydropyrazin-2-one 4-oxide] | 20 µg/mL
4 | CCOc1nc(CC(C)C)c(OCC)nc1Cc1c[nH]c2ccccc12 [Compound A-23, 3-(Indol-3-yl)methyl-2,5-diethoxy-6-isobutylpyrazine] | 50 µg/mL
5 | COc1nc(-c2ccccc2)c(=O)n(C)c1Cc1c[nH]c2ccccc12 [Compound A-6a, 6-(indol-3-yl)methyl-5-methoxy-1-methyl-3-phenyl-1,2-dihydropyrazin-2-one] | 30 µg/mL
6 | COn1c(CC(C)C)c(Cl)nc(Cc2c[nH]c3ccccc23)c1=O [Compound A-45, 5-chloro-3-(indol-3-yl)methyl-6-isobutyl-1-methoxy-1,2-dihydropyrazin-2-one] | 20 µg/mL
7 | COc1nc(Cc2c[nH]c3ccccc23)c(OC)[n+]([O-])c1CC(C)C [Compound A-60, 3-(indol-3-yl)methyl-6-isobutyl-2,5-dimethoxypyrazine 1-oxide] | 20 µg/mL
8 | CC(C)C[C@@H]1NC(=O)/C(=C/c2c[nH]c3ccccc23)N(C)C1=O [Compound A-4b, (3S,Z)-6-(Indol-3-yl)methylidene-3-isobutyl-1-methylpiperazine-2,5-dione] | 30 µg/mL
9 | COC(=O)n1cc(Cc2nc(Cl)c(CC(C)C)[n+]([O-])c2OC)c2ccccc21 [Compound A-48, 3-Chloro-2-isobutyl-5-[(1-methoxycarbonyl)indol-3-yl]methyl-6-methoxypyrazineyl-oxide] | 50 µg/mL
10 | COc1nc(CC(C)C)c(=O)n(C)c1Cc1c[nH]c2ccccc12 [Compound A-6b, 6-(Indol-3-yl)methyl-3-isobutyl-5-methoxy-1-methyl-1,2-dihydropyrazin-2-one] | 30 µg/mL
11 | COc1c(Cc2c(-c3ccccc3)[nH]c3ccccc23)[nH]c(=O)c(CC(C)C)[n+]1[O-] [Compound E-34g, 3-Isobutyl-5-methoxy-6-[(2-phenyl)indol-3-yl]methyl-1,2-dihydropyrazin-2-one 4-oxide] | 8 µg/mL
12 | O=C1CN(O)C(=O)[C@H](Cc2c[nH]c3ccccc23)N1 [Compound A-29c, (3S)-1-Hydroxy-3-(indol-3-yl)methylpiperazine-2,5-dione] | 50 µg/mL
13 | CC(C)Cc1nc(Cl)c(Cc2c[nH]c3ccccc23)nc1Cl [Compound A-26, 3-(Indol-3-yl)methyl-2,5-dichloro-6-isobutylpyrazine] | 10 µg/mL
14 | CC(C)/C=c1\[nH]c(=O)/c(=C/c2c[nH]c3ccccc23)[nH]c1=O [Compound A-34, (Z,Z)-3-(indol-3-yl)methylidene-6-isobutylidenepiperazine-2,5-dione] | 50 µg/mL
15 | COc1nc(CC(C)C)c(OC)nc1Cc1c[nH]c2ccccc12 [Compound A-19, 3-(Indol-3-yl)methyl-6-isobutyl-2,5-dimethoxypyrazine] | 25 µg/mL
16 | COc1c(Cn2ccc3cc(C#N)ccc32)[nH]c(=O)c(CC(C)C)[n+]1[O-] [Compound E-36o, 6-[(5-cyano)indol-1-yl]methyl-3-isobutyl-5-methoxy-1,2-dihydropyrazin-2-one4-oxide] | 12 µg/mL
17 | CC(C)Cc1c(=O)[nH]c(Cc2c[nH]c3ccccc23)c[n+]1[O-] [Compound A-84, 6-(indol-3-yl)methyl-3-isobutyl-1,2-dihydropyrazin-2-one 4-oxide] | 50 µg/mL
18 | COc1c(Cc2c[nH]c3ccccc23)nc(OC(C)=O)c(CC(C)C)[n+]1[O-] [Compound E-65, 3-Acetoxy-5-(indol-3-yl)methyl-2-isobutyl-6-methoxypyrazine 1-oxide] | 9 µg/mL
19 | COn1c(C)c(C)nc(Cc2c[nH]c3ccccc23)c1=O [Compound A-53, 3-(Indol-3-yl)methyl-1-methoxy-5,6-dimethyl-1,2-dihydropyrazin-2-one] | 43 µg/mL
20 | CC(C)C[C@H]1C(=O)N[C@@H](Cc2c[nH]c3ccccc23)C(=O)N1OCc1ccccc1 [Compound A-35d, (3S,6S)-1-Benzyloxy-3-(indol-3-yl)methyl-6-isobutyl-piperazine-2,5-dione] | 50 µg/mL
21 | COc1nc(CC(C)C)c(OC(C)=O)nc1Cc1c[nH]c2ccccc12 [Compound A-20, 2-Acetoxy-6-(indol-3-yl)methyl-3-isobutyl-5-methoxypyrazine] | 20 µg/mL
22 | COc1c(CC2C(=O)Nc3ccccc32)[nH]c(=O)c(CC(C)C)[n+]1[O-] (centres unmarked) [Compound E-39, 2-Isobutyl-5-methxoy-6-(oxindol-3-yl)methyl-1,2-dihydropyrazin-2-one 4-oxide] | 50 µg/mL

Same assay, conditions: rat neutrocytes 5×10^5 cells/ml; FMLP 10^-6 M + cytochalasin B 5 μg/ml; 15 minutes; OD550

Row | Compound | 50% inhibitory concentration (IC50), releasing of lysosome
23 | 6-(indol-3-yl)methyl-2-isobutyl-5-methyl-1,2-dihydropyrazin-3-one 4-oxide [Compound A-82a] | 20 µg/mL
